Measurements reported in patent US20100152239A1, “Method to Improve Survival in Sepsis” (priority 2008, published 2010).

Assays:
macrophages = conditions: via alpha7nAChR; cited from earlier work
[1] = mice; cited from earlier work
serum TNF and HMGB1 = conditions: cited from earlier work
[2] = test system: RAW264.7 macrophage cells; conditions: via alpha7nAchR; cited from earlier work
hemorrhagic rats = experiment: Survival after severe hemorrhage and resuscitation; type: in vivo, rat; conditions: for animals with hemorrhagic shock protected: n=7/group
Description: Adult male Sprague-Dawley (350-450 g) rats were purchased from Harlen Sprague-Dawley (Indianapolis, Ind., USA) and allowed to acclimate for 7 days, housed at 25° C. on a 12-hr light/dark cycle. Animals were randomly grouped and assigned to a specific experiment. Investigators were blinded to the experimental treatment.
Animals were anaesthetized by inhalation of isoflurane (5% induction, 2% maintenance; Minrad, Buffalo, N.Y., USA) and subjected to surgical catheter placement into the femoral artery and vein under sterile conditions. To avoid blood clot and maintain catheter patency, the catheters were flushed with 1% heparin solution immediately before placement. Heparin was not used in vivo during the experiment or observation period in agreement with previous studies. After the catheter implantation, the blood pressure and the heart rate were recorded for 15 min. to establish a physiological baseline prior the hemorrhage procedure. Then, the animals were subjected to hemorrhage over 15 min. to reach a mean arterial blood pressure (MAP) of 35-40 mmHg and subsequent maintenance of this blood pressure by continued blood withdrawal for another 15 min. After the shock phase, resuscitated animals received specific resuscitation treatment over 40 min. with a total volume of 15 ml/kg (equivalent to 1000 ml of Hextend in a 70 kg person). The femoral artery was catheterized with a catheter R-FAC (Braintree Scientific, Inc., Braintree, Mass., USA) previously flushed with 1% heparin in 0.9% saline to allow spontaneous bleeding due to arterial blood pressure. Shed blood was considered lost and it was not reinfused. After resuscitation treatment, the animals were kept anesthetized for 2 hrs to record heart rate, blood pressure and blood chemistry. The control animals were also anesthetized with isoflurane for blood collection. Then, the anesthesia was stopped and the animals were allowed to recover from anesthesia and housed individually in regular cages. Splenectomy was performed as we described previously. Briefly, the spleen was identified following a midline laparotomy incision, and removed after appropriate blood vessel ligation. Sham animals underwent laparotomy without splenectomy.
All data in the figures and text are expressed as mean±standard deviation (SD). Statistical analyzes were performed using the one-way ANOVA with multiple pairwise comparisons with the Bonferroni's adjustment for multiple hypothesis testing. The Student's t-test was used to compare mean values between two experimental groups. Statistical analyzes of survival were determined using the logrank test. P-values<0.05 were considered statistically significant.
Adult male Sprague-Dawley hemorrhagic rats received no resuscitation (NR) or were resuscitated with 15 ml/kg (i.v.) Hextend (HEXT) or Hextend supplemented with GTS (GTS). (A) Arterial blood pressure was recorded during hemorrhage and the resuscitation treatment. (B) All animals without resuscitation treatment (NR; n=10) died within the first 5 hrs after hemorrhage with an average time of death of 161±26 min. Resuscitation with Hextend allowed the animals to restore normal blood pressure and tissue perfusion, and yet 90% of the animals died (n=9). […] P<0.05 survival logrank test versus NR (*) or HXT(#).

[3] = Arterial blood pressure during hemorrhage and resuscitation; type: in vivo, rat; conditions: 15 ml/kg resuscitation fluid i.v.
Description: Animals were anaesthetized by inhalation of isoflurane (5% induction, 2% maintenance; Minrad, Buffalo, N.Y., USA) and subjected to surgical catheter placement into the femoral artery and vein under sterile conditions. To avoid blood clot and maintain catheter patency, the catheters were flushed with 1% heparin solution immediately before placement. […] After the catheter implantation, the blood pressure and the heart rate were recorded for 15 min. to establish a physiological baseline prior the hemorrhage procedure. Then, the animals were subjected to hemorrhage over 15 min. to reach a mean arterial blood pressure (MAP) of 35-40 mmHg and subsequent maintenance of this blood pressure by continued blood withdrawal for another 15 min. After the shock phase, resuscitated animals received specific resuscitation treatment over 40 min. with a total volume of 15 ml/kg (equivalent to 1000 ml of Hextend in a 70 kg person). The femoral artery was catheterized with a catheter R-FAC (Braintree Scientific, Inc., Braintree, Mass., USA) previously flushed with 1% heparin in 0.9% saline to allow spontaneous bleeding due to arterial blood pressure. Shed blood was considered lost and it was not reinfused. After resuscitation treatment, the animals were kept anesthetized for 2 hrs to record heart rate, blood pressure and blood chemistry. […]

[4] = Blood chemistry during resuscitation (i-Stat); type: in vivo, rat; conditions: blood at 2 hrs after hemorrhage; n=4/group
Description: (§1) Activation Blood was collected at 2 hrs after the hemorrhagic shock and analyzed using the i-Stat blood analyzer (Abbot Laboratories, IL, USA). Lung function was assessed by analyzing blood gases including total and partial carbon dioxide (TCO2, PCO2), bicarbonate (HCO3), pH and the base excess of extracellular fluid (BEecf). The organ function tests include […] sodium, potassium, chloride, the anion gap (AnGap), total plasma protein (TP), and blood urea nitrogen (BUN). Blood chemistry also included glucose, hematocrit and hemoglobin. The systemic inflammatory status was assessed by analyzing critical pro-inflammatory cytokines and cardiodepressant factors such as TNF and HMGB1. The major organs were collected and immediately sliced and washed with PBS at 4° C. TNF concentrations in serum and major organs were determined by ELISA (R&D Systems, Inc., Minneapolis, Minn., USA). HMGB1 was analyzed by Western blot as previously described.

TNF [5] = experiment: TNF protein in serum and organs by ELISA during resuscitation; type: in vivo, rat; conditions: non-splenectomized animals; 2 hrs; n=4/group
Description: as §1

p65RelA NF-κB = p65RelA NF-κB binding to DNA in organs (TransAM DNA-Binding ELISA); type: in vivo, rat; conditions: nuclear extracts at 2 hrs after hemorrhage
Description: (§2) Homogenates were normalized by protein concentration and the activation of IκBα was analyzed by Western blot by using anti-IκBα polyclonal antibody ab7217 and anti-phosphorylated-IκBα(phospho S32+S36) monoclonal antibody [clone39A1431] ab12135 (Abcam; Cambridge, Mass., USA). Transcriptional activity of splenic p65RelA was analyzed by TransAM DNABinding ELISA (Active Motif; Cambridge, Mass., USA) following manufacturer's instructions. […] Protein levels were measured using the Bradford method (BIO-RAD) and PARP activity was normalized to protein content.

RelB NF-κB = RelB NF-κB binding to DNA in spleen (TransAM DNA-Binding ELISA); type: in vivo, rat; conditions: nuclear extracts at 2 hrs after hemorrhage
mRNA TNF = experiment: TNF transcription in heart and spleen by real-time PCR; type: in vivo, rat; conditions: 2 hrs after hemorrhage; as compared with Hextend; n=4/group
Description: We analyzed mRNA TNF levels in the heart and the spleen by real-time PCR (FIG. 5, GTS inhibits TNF transcription in the spleen during resuscitation. Organs from control or hemorrhagic animals without or with resuscitation were analyzed at 2 hrs after hemorrhage. TNF transcription in the (A) heart and (B) spleen was analyzed by real-time PCR. * represents P<0.05 versus HXT (n=4/group; one-way ANOVA with Bonferroni's corrections)). Hemorrhage increased mRNA TNF levels in both the heart and the spleen as analyzed by real-time PCR. […] In order to determine whether the inhibition of splenic TNF is sufficient to account for the anti-inflammatory potential of GTS, we analyzed the pharmacological implications of the spleen during resuscitation.

TNF [6] = experiment: TNF protein in splenectomized hemorrhagic animals after resuscitation; type: in vivo, rat; conditions: n=4/group
Description: as §1

HMGB1 = experiment: Serum HMGB1 by Western blot during resuscitation; type: in vivo, rat; conditions: 2 hrs after hemorrhage; n=4/group
Description: as §1

[7] = test system: poly(ADP-ribose) polymerase (PARP); experiment: PARP activity in organ homogenates; type: in vivo, rat; conditions: liver homogenates; n=4/group
Description: as §2

[8] = rats; cited from earlier work

## CN1CCCC1c1cccnc1 (stereo not drawn) [nicotine]
macrophages
  production of TNF and HMGB1 in macrophages: inhibits TNF and HMGB1 production
[1]
  effect on locomotor activity: biphasic effect
Serum TNF and HMGB1; experimental models of systemic inflammation
  survival: improves survival
Serum TNF and HMGB1; in vivo treatment, experimental models of systemic inflammation
  serum TNF and HMGB1 levels: inhibits serum TNF and HMGB1 levels
Serum TNF and HMGB1; previous studies
  systemic TNF levels in sham versus splenectomized animals: attenuated systemic TNF levels in sham but not in splenectomized animals
[2]
  endotoxin-induced p65NF-κB activation: inhibits endotoxininduced p65NF-κB activation

## COc1ccc(/C=C2\CCCN=C2c2cccnc2)c(OC)c1 [GTS, 3-[(2,4-dimethoxy)benzylidene]-anabaseine]
Hemorrhagic rats; 0.02 mg/kg GTS in Hextend
  animals with hemorrhagic shock protected: 17%
Hemorrhagic rats; 0.2 mg/kg GTS
  protection as compared with Hextend solution alone (logrank): statistically significant protection
Hemorrhagic rats; 0.2 mg/kg GTS in Hextend
  animals with hemorrhagic shock protected: 67%
Hemorrhagic rats; 2 mg/kg GTS
  protection as compared with Hextend solution alone (logrank): statistically significant protection
Hemorrhagic rats; Hextend supplemented with 350 uM GTS, 15 ml/kg i.v., n=7, followed up to 7 days
  survival from lethal hemorrhage: rescued all the animals from lethal hemorrhage
[3]
  blood pressure after resuscitation: re-established blood pressure
[4]
  AnGap, bicarbonate and chloride: re-established normal values of AnGap and bicarbonate but not hypochloremia
  hyperglycemic response (glucose): significantly prevented
  metabolic acidosis (pH): prevented metabolic acidosis
  uremia (blood urea nitrogen): did not prevent uremia
TNF [5]
  TNF levels in organs (lung, liver, heart, spleen): blunted TNF levels in all of the organs
  serum (circulating) TNF levels: circulating TNF levels similar to those in control mice
p65RelA NF-κB
  p65RelA NF-κB activation in organs (heart, liver, spleen): inhibited p65RelA NF-κB in most of the organs but not in the heart
RelB NF-κB
  RelB NF-κB activation in spleen: not affected
mRNA TNF
  mRNA TNF levels in heart and spleen: decreased mRNA TNF levels in the spleen but not in the heart
TNF [6]
  TNF levels in serum, lung and heart of splenectomized animals: significantly inhibited serum TNF levels as well as TNF levels in the lung and the heart
  systemic (serum) TNF levels in splenectomized animals: significantly inhibited systemic TNF levels
HMGB1
  serum HMGB1 levels: no serum HMGB1 was found
[7]
  hepatic PARP activity: inhibited PARP activation
[8]
  effect on dopamine turnover: no effect
[1]
  effect on locomotor activity: no effect
